In patent US20250122183A1 (Pfizer Inc., priority 2023, published 2025) one finds Ki data, which are given here for 21 compounds.

Read-outs that look alike come from different tables or passages of the source.

What all share (type): biochemical
In one test the target is KAT6A Full length enzyme (Homo sapiens (Human), UniProt Q92794). In words: KAT6A assay (SAMDI-MS acetylation of H3 1-21 peptide). As to conditions: replicate number in parentheses.
For test [1], the target named is KAT7+JADE1+EAF6+ING5 4 protein complex (Homo sapiens (Human), UniProt O95251). In words: KAT7 JADE1 assay (SAMDI-MS acetylation of H3 1-21 peptide). As to conditions: replicate number in parentheses.
A further test addresses KAT8 Full length enzyme (Homo sapiens (Human), UniProt Q9H7Z6). In words: KAT8 assay (SAMDI-MS acetylation of H3 1-21 peptide). The settings on record: replicate number in parentheses.
In another test the target is KAT5 Full length enzyme (Homo sapiens (Human), UniProt Q92993). In words: KAT5 assay (SAMDI-MS acetylation of H4 1-21 peptide). The settings on record: Morrison equation fit; replicate number in parentheses; read-out: KAT5 Ki (nM) (replicate number).
Sequence of KAT5 Full length enzyme (Q92993 whole entry): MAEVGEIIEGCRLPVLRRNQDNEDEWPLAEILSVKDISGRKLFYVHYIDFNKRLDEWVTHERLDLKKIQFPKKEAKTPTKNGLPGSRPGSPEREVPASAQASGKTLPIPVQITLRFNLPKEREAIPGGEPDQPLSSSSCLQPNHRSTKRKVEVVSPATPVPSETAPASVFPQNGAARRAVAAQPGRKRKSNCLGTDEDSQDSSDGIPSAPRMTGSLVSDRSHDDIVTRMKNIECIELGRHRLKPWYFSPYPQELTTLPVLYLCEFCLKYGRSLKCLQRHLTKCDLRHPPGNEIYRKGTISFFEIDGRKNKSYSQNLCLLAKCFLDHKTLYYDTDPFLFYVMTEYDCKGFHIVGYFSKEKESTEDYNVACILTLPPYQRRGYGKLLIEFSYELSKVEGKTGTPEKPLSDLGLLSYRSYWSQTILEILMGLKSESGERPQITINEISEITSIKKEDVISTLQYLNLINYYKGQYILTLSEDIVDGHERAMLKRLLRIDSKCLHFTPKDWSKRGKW
[2] abbreviates: Morrison equation fit, read-out: KAT6A Ki (nM) (replicate number).
Setting [3] is: Morrison equation fit, read-out: KAT7 JADE1 Ki (nM) (replicate number).
The mark [4] stands for this setting: Morrison equation fit, read-out: KAT8 Ki (nM) (replicate number).
Where [5] appears, read: read-out: KAT6A Ki (nM) (replicate).
The mark [6] stands for this setting: read-out: KAT7 JADE1 Ki (nM) (replicate).
Where [7] appears, read: read-out: KAT8 Ki (nM) (replicate).

Sequence of KAT6A Full length enzyme (Q92794 other isoform, or with tags, fused parts or gaps): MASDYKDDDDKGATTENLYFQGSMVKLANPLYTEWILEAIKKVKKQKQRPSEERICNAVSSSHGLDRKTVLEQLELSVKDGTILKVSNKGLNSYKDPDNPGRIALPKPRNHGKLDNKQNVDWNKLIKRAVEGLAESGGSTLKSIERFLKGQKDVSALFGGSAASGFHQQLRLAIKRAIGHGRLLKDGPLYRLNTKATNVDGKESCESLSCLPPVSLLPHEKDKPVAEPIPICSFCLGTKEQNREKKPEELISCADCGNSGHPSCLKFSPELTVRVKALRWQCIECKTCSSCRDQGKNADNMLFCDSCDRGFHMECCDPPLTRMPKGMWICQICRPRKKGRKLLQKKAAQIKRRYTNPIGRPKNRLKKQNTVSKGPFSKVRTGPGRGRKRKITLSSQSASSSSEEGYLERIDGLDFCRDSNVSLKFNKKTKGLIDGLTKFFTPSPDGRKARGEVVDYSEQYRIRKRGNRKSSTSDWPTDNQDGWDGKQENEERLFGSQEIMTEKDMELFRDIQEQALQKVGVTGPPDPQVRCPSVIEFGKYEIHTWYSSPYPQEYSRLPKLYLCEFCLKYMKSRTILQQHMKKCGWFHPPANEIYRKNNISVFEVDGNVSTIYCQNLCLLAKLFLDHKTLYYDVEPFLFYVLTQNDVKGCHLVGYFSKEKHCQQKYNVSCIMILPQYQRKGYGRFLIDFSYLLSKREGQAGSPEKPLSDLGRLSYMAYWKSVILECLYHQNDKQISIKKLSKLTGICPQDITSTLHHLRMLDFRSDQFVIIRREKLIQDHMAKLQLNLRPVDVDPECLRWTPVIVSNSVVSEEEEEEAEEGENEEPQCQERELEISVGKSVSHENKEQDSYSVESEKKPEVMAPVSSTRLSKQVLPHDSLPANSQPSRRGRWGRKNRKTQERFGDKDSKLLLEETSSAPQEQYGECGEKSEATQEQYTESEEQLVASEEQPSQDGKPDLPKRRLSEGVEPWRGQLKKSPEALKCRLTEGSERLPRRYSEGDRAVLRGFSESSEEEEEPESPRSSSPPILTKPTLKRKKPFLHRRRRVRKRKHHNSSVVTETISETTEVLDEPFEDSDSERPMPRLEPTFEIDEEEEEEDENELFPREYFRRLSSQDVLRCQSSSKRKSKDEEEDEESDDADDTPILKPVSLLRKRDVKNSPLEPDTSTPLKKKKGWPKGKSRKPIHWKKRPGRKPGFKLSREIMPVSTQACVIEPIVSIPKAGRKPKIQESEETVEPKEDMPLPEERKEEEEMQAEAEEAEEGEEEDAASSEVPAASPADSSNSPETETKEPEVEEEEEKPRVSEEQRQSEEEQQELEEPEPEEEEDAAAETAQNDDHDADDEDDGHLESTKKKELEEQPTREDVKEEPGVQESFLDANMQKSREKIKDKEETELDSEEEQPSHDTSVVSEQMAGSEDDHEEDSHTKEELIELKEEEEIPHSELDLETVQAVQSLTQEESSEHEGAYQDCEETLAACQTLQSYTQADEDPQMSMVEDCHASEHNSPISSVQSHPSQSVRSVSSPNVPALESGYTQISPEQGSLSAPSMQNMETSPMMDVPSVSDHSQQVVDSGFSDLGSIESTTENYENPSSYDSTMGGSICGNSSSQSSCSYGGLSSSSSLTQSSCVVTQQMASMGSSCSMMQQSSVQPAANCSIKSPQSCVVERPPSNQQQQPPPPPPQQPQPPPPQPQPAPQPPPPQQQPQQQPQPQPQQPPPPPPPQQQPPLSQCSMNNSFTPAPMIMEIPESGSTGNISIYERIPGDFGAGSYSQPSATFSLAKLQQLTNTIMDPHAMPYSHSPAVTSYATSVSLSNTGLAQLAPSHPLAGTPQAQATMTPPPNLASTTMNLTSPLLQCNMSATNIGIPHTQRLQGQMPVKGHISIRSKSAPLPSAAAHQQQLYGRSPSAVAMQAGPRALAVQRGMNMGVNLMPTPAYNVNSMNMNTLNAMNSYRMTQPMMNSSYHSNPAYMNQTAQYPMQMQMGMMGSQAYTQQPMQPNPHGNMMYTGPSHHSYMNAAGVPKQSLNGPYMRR
Sequence of KAT8 Full length enzyme (Q9H7Z6 whole entry): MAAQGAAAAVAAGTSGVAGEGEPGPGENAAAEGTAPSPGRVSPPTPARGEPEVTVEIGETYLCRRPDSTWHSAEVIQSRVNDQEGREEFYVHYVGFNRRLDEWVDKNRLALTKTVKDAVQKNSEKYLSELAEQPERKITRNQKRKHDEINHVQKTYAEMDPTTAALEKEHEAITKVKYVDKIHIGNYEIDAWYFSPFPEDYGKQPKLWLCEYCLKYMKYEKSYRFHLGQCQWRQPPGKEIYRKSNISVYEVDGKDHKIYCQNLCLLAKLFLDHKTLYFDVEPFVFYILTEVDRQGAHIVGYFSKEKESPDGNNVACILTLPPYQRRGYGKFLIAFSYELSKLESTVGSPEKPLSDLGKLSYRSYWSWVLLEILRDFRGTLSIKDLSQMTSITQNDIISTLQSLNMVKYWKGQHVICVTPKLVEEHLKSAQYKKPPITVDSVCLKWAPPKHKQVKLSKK

`COc1cc2c(NS(=O)(=O)c3c(OC)cccc3OC)noc2cc1Nc1cc(C2(C)CC2)n[nH]1` [Example 94, 2,6-dimethoxy-N-(5-methoxy-6-{[3-(1-methylcyclopropyl)-1H-pyrazol-5-yl]amino}-1,2-benzoxazol-3-yl)benzene-1-sulfonamide]: the Ki (usually the equilibrium dissociation constant of an inhibitor or competing ligand from its target) at KAT6A Full length enzyme (setting [2]) amounted to 6.3 nM; in test [1] (setting [3]), 58.1 nM; at KAT8 Full length enzyme (setting [4]), 5740 nM; on KAT5 Full length enzyme, 193 nM.
The matching figures for `COc1cc2c(NS(=O)(=O)c3c(OC)cccc3OC)noc2cc1Nc1cc([C@H]2CC2(F)F)[nH]n1` (single isomer, unassigned) [Example 68, N-(6-{[5-(2,2-difluorocyclopropyl)-1H-pyrazol-3-yl]amino}-5-methoxy-1,2-benzoxazol-3-yl)-2,6-dimethoxybenzene-1-sulfonamide]: 1.2 nM, 16.8 nM, 4130 nM and 39.3 nM.
The corresponding values for `CCc1cnc(Nc2cc3onc(NS(=O)(=O)c4c(OC)cccc4OC)c3cc2OC)nc1` [Example 107, N-{6-[(5-ethylpyrimidin-2-yl)amino]-5-methoxy-1,2-benzoxazol-3-yl}-2,6-dimethoxybenzene-1-sulfonamide] are 132 nM, 6540 nM, > 13000 nM and 10400 nM.
As for `COc1cc2c(NS(=O)(=O)c3c(OC)cccc3OC)noc2cc1Nc1cc(Cl)n[nH]1` [Example 92, N-{6-[(3-chloro-1H-pyrazol-5-yl)amino]-5-methoxy-1,2-benzoxazol-3-yl}-2,6-dimethoxybenzene-1-sulfonamide], the Ki amounted to 1.3 nM on KAT6A Full length enzyme (setting [2]), 219 nM in test [1] (setting [3]), 2100 nM at KAT8 Full length enzyme (setting [4]) and 867 nM on KAT5 Full length enzyme.
The corresponding values for `COc1cccc(OC)c1S(=O)(=O)Nc1noc2cc(Nc3ccccn3)cc(OC)c12` [Example 18, 2,6-dimethoxy-N-{4-methoxy-6-[(pyridin-2-yl)amino]-1,2-benzoxazol-3-yl}benzene-1-sulfonamide] are 1 nM, 245 nM, 5960 nM and 5420 nM.
The matching figures for `COc1cc2c(NS(=O)(=O)c3c(OC)cccc3OC)noc2cc1Nc1cc([C@H](C)O)n[nH]1` (single isomer, unassigned) [Example 86, N-(6-{[3-(1-hydroxyethyl)-1H-pyrazol-5-yl]amino}-5-methoxy-1,2-benzoxazol-3-yl)-2,6-dimethoxybenzene-1-sulfonamide]: 8.9 nM, 552 nM, > 13000 nM and 1280 nM.
As for `COc1cc2c(NS(=O)(=O)c3c(OC)cc([C@H]4CCCO4)cc3OC)noc2cc1Nc1cc(C2CC2)n[nH]1` [Example 141, N-{6-[(3-cyclopropyl-1 H-pyrazol-5-yl)amino]-5-methoxy-1,2-benzoxazol-3-yl}-2,6-dimethoxy-4-[(2R)-oxolan-2-yl]benzene-1-sulfonamide], the Ki at KAT6A Full length enzyme (setting [2]) amounted to 1 nM; in test [1] (setting [3]), 6.9 nM; on KAT8 Full length enzyme (setting [4]), 762 nM; at KAT5 Full length enzyme, 134 nM.
With `COc1cc2c(NS(=O)(=O)c3c(OC)cc(C4CN(C)CCO4)cc3OC)noc2cc1Nc1cc(C2CC2)n[nH]1` (single isomer, unassigned) [Example 152, N-{6-[(3-cyclopropyl-1 H-pyrazol-5-yl)amino]-5-methoxy-1,2-benzoxazol-3-yl}-2,6-dimethoxy-4-(4-methylmorpholin-2-yl)benzene-1-sulfonamide], the Ki at KAT6A Full length enzyme (setting [2]) was determined as 0.7 nM; in test [1] (setting [3]), 4.1 nM; on KAT8 Full length enzyme (setting [4]), 1160 nM; on KAT5 Full length enzyme, 105 nM.
Regarding `COc1cccc(OC2CCC2)c1S(=O)(=O)Nc1noc2cc(Nc3cc(C4CC4)n[nH]3)c(F)c(OC)c12` [Example 98, 2-(cyclobutyloxy)-N-{6-[(3-cyclopropyl-1H-pyrazol-5-yl)amino]-5-fluoro-4-methoxy-1,2-benzoxazol-3-yl}-6-methoxybenzene-1-sulfonamide], the Ki on KAT6A Full length enzyme (setting [2]) was 5.7 nM; in test [1] (setting [3]), 74.6 nM; on KAT8 Full length enzyme (setting [4]) it was > 13000 nM; on KAT5 Full length enzyme it was 3790 nM.
For the compound `COc1cc2c(NS(=O)(=O)c3cc4ccccc4cc3OC)noc2cc1Nc1cc(C2CC2)n[nH]1` [Example 95, N-{6-[(3-cyclopropyl-1H-pyrazol-5-yl)amino]-5-methoxy-1,2-benzoxazol-3-yl}-3-methoxynaphthalene-2-sulfonamide], the Ki at KAT6A Full length enzyme (setting [2]) amounted to 0.1 nM; in test [1] (setting [3]) it was 0.3 nM; at KAT8 Full length enzyme (setting [4]), 77 nM; at KAT5 Full length enzyme, 18.1 nM.
The matching figures for `COc1cc2c(NS(=O)(=O)c3c(OC)cccc3OC)noc2cc1Nc1cc2n(n1)CCC21CC1` [Example 112, N-{6-[(5′,6′-dihydrospiro[cyclopropane-1,4′-pyrrolo[1,2-b]pyrazol]-2′-yl)amino]-5-methoxy-1,2-benzoxazol-3-yl}-2,6-dimethoxybenzene-1-sulfonamide]: 17.6 nM, 238 nM, > 13000 nM and 689 nM.
The corresponding values for `COc1cc2c(NS(=O)(=O)c3c(OC)cc(-c4cccnc4)cc3OC)noc2cc1Nc1cc(C2CC2)n[nH]1` [Example 07, N-{6-[(3-cyclopropyl-1H-pyrazol-5-yl)amino]-5-methoxy-1,2-benzoxazol-3-yl}-2,6-dimethoxy-4-(pyridin-3-yl)benzene-1-sulfonamide] are 0.6 nM, 4.2 nM, 457 nM and 53.6 nM.
The matching figures for `COc1cccc(OC)c1S(=O)(=O)Nc1noc2cc(Nc3cccnn3)cc(OC)c12` [Example 19, 2,6-dimethoxy-N-{4-methoxy-6-[(pyridazin-3-yl)amino]-1,2-benzoxazol-3-yl}benzene-1-sulfonamide]: 30.8 nM, 516 nM, > 16300 nM and 15700 nM.
Consider `COc1cc2c(NS(=O)(=O)c3c(OC)cc(-c4ccccc4)cc3OC)noc2cc1Nc1cc(C2CC2)n[nH]1` [Example 119, N-{6-[(3-cyclopropyl-1H-pyrazol-5-yl)amino]-5-methoxy-1,2-benzoxazol-3-yl}-3,5-dimethoxy[1,1′-biphenyl]-4-sulfonamide], for which the Ki turned out to be 0.2 nM on KAT6A Full length enzyme (setting [2]), 3.6 nM in test [1] (setting [3]), 156 nM on KAT8 Full length enzyme (setting [4]) and 19.4 nM at KAT5 Full length enzyme.
The matching figures for `COc1cc2c(NS(=O)(=O)c3c(OC)cccc3OC)noc2cc1Nc1cc(C2CC(F)(F)C2)[nH]n1` [Example 117, N-(6-{[5-(3,3-difluorocyclobutyl)-1H-pyrazol-3-yl]amino}-5-methoxy-1,2-benzoxazol-3-yl)-2,6-dimethoxybenzene-1-sulfonamide]: 5.3 nM, 25.1 nM, 10000 nM and 360 nM.
The matching figures for `CCCc1ccc(S(=O)(=O)Nc2noc3cc(Nc4cc(CC)[nH]n4)c(OC)cc23)cc1` [Example 127, N-{6-[(5-ethyl-1 H-pyrazol-3-yl)amino]-5-methoxy-1,2-benzoxazol-3-yl}-4-propylbenzene-1-sulfonamide]: 32.8 nM, 175 nM, > 13000 nM and 3940 nM.
As to `COc1cc2c(NS(=O)(=O)c3c(OC)cc(-c4ncccn4)cc3OC)noc2cc1Nc1cc(C2CC2)n[nH]1` [Example 211, N-{6-[(3-cyclopropyl-1 H-pyrazol-5-yl)amino]-5-methoxy-1,2-benzoxazol-3-yl}-2,6-dimethoxy-4-(pyrimidin-2-yl)benzene-1-sulfonamide], the Ki on KAT6A Full length enzyme (setting [2]) was determined as 1.1 nM; in test [1] (setting [3]) it was 3.7 nM; on KAT8 Full length enzyme (setting [4]), 1350 nM; on KAT5 Full length enzyme, 89.4 nM.
Regarding `COc1cc2c(NS(=O)(=O)c3cc(C)c(C)cc3OC)noc2cc1Nc1cc[nH]n1` [Example 25, 2-methoxy-N-{5-methoxy-6-[(1H-pyrazol-3-yl)amino]-1,2-benzoxazol-3-yl}-4,5-dimethylbenzene-1-sulfonamide], the values for the Ki at KAT6A Full length enzyme (setting [2]), at KAT8 Full length enzyme (setting [4]) and at KAT5 Full length enzyme were 0.8 nM, 446 nM and 121 nM, respectively.
The matching figures for `COc1cc2c(NS(=O)(=O)c3cc4c(cc3OC)CCCC4)noc2cc1Nc1cc[nH]n1` [Example 05, 3-Methoxy-N-{5-methoxy-6-[(1H-pyrazol-3-yl)amino]-1,2-benzoxazol-3-yl}-5,6,7,8-tetrahydronaphthalene-2-sulfonamide]: 0.5 nM, 290 nM and 13.6 nM.
In the case of `COc1cc2c(NS(=O)(=O)c3c(OC)cc(C(C)(C)OC)cc3OC)noc2cc1Nc1cc(C2CC2)n[nH]1` [Example 271, N-{6-[(3-cyclopropyl-1H-pyrazol-5-yl)amino]-5-methoxy-1,2-benzoxazol-3-yl}-2,6-dimethoxy-4-(2-methoxypropan-2-yl)benzene-1-sulfonamide], the Ki on KAT6A Full length enzyme (setting [5]) is 1 nM; in test [1] (setting [6]), 7 nM; on KAT8 Full length enzyme (setting [7]) it was 1010 nM.
The matching figures for `COc1cc2c(NS(=O)(=O)c3c(OC)cc(C(C)OC)cc3OC)noc2cc1Nc1cc(C2CC2)[nH]n1` (single isomer, unassigned) [Example 273, N-{6-[(5-cyclopropyl-1H-pyrazol-3-yl)amino]-5-methoxy-1,2-benzoxazol-3-yl}-2,6-dimethoxy-4-(1-methoxyethyl)benzene-1-sulfonamide]: 0.6 nM, 4.7 nM and 2020 nM.
